{"source": "paper PMC4764579", "about": "“Structural insights into the mechanism of activation of the TRPV1 channel by a membrane-bound tarantula toxin” (eLife, 2016)", "assay": "Membrane partitioning of toxins into lipid vesicles measured using Trp fluorescence", "assay_type": "physicochemical", "conditions": "LUVs 1:1 POPC:POPG", "text": "Motivated by the amphipathic character evident in the structure of DkTx, together with the placement of the toxin at the protein-lipid interface when bound to TRPV1, we investigated the interaction of DkTx and each of its two lobes with lipid membranes. For these experiments, we took advantage of the presence of a single conserved and solvent accessible Trp residue in loop 2 of both K1 and K2 (Figure 1C,D; W11 and W53), and used Trp fluorescence to monitor the partitioning of the toxin from the aqueous solution into the membrane environment ([Gupta et al., 2015]; [Ladokhin et al., 2000]; [Milescu et al., 2007]). When aqueous solutions of DkTx were excited at a wavelength of 280 nm, emission spectra with maxima at 353 nm were obtained (Figure 5A, left), as expected for Trp residues residing in such an environment. […] To quantify the extent of partitioning as a function of lipid concentration, we measured the relative fluorescence intensity in a blue-shifted region of the spectra (e.g. 320 nm) as a function of lipid concentration, and fit a partition function to the data to obtain a mole-fraction partition coefficient (Kx) of (2.3 ± 0.7) × 10^6, indicating an energetically favorable interaction of DkTx with lipid membranes (Figure 5A, right). This strong interaction of DkTx with membranes would facilitate binding of the toxin to the channel by increasing the local concentration of the toxin near the channel and by a reduction in the dimensionality of diffusion within the membrane ([Axelrod and Wang, 1994]).\nFigure 5. Interaction of DkTx and toxin constructs with lipid membranes measured using Trp fluorescence. (A–E, left panel) Trp emission spectra of DkTx (A), K1 without linker (B), K2 (C), bivalent K1 (K1K1) (D) and bivalent K2 (K2K2) (E) in the absence (black) and presence (blue, 1.6 mM for DkTx, 2 mM for K1-ΔL and K1K1, and 3 mM for K2 and K2K2) of lipid vesicles (1:1 mix of POPC:POPG). (A–E, right panel) Relative fluorescence intensity at 320 nm (F/F0) as a function of available lipid concentrations (60% of total lipid concentration). Smooth curves correspond to partition functions with Kx = (2.3 ± 0.7) × 10^6 and F/F0^max = 2.65 ± 0.08 for DkTx, Kx = (3.9 ± 1.1) × 10^5 and F/F0^max = 2.63 ± 0.07 for K1-ΔL, Kx = (2.0 ± 0.3) × 10^4 and F/F0^max = 3.71 ± 0.40 for K2, Kx = (2.9 ± 0.3) × 10^6 and F/F0^max = 2.47 ± 0.03 for K1K1 and Kx = (8.1 ± 2) × 10^5 and F/F0^max = 2.77 ± 0.55 for K2K2. Error bars correspond to SEM (n = 3 or 4). Partition functions for K1-ΔL and K2 are shown as dotted lines for comparison in D and E, respectively. (F) Comparisons of mole-fraction partition coefficient (Kx) of toxins. 7G-DkTx denotes a construct of DkTx whose linker (PYVPVTT) is replaced with 7 Gly residues. Error bars correspond to SEM (n = 3 or 4). DOI: http://dx.doi.org/10.7554/eLife.11273.020 Figure 5—figure supplement 1. Interaction of K1-K2 chimeras with lipid membranes measured using Trp fluorescence. (A–E, left panel) Trp emission spectra of K1(D1N) (A), K1(K2L2) (B), K1(K2L3) (C), K1(K2L4) (D) and K1(K2CT) (E) in the absence (black) and presence (blue, 2 mM) of lipid vesicles (1:1 mix of POPC:POPG). (A–D, right panel) Relative fluorescence intensity at 320 nm (F/F0) as a function of available lipid concentrations (60% of total lipid concentration). Smooth curves correspond to partition functions with Kx = (1.76 ± 0.06) × 10^6 and F/F0^max = 3.79 ± 0.02 for K1(D1N), Kx = (4.77 ± 1.39) × 10^5 and F/F0^max = 1.31 ± 0.02 for K1(K2L2), Kx = (1.02 ± 0.04) × 10^4 and F/F0^max = 3.69 ± 0.02 for K1(K2L3), and Kx = (0.90 ± 0.04) × 10^6 and F/F0^max = 2.59 ± 0.02 for K1(K2L4). Error bar corresponds to SEM (n = 3 or 4). Smooth curve of K1-ΔL was shown as a dotted line for comparison throughout the figures. (F) Comparisons of mole-fraction partition coefficient (Kx) of toxins. Error bars correspond to SEM (n = 3 or 4). DOI: http://dx.doi.org/10.7554/eLife.11273.021 [drawing 10] […]", "note": "Positions of bridges follow the written chain, without caps; N, C: chain ends. Residues, ends and D or L forms follow the SMILES beside them.", "data": [{"smiles": "CC[C@H](C)[C@@H]1NC(=O)[C@H](Cc2ccccc2)NC(=O)[C@H](C)NC(=O)[C@H](CC(C)C)NC(=O)[C@@H]2CCCN2C(=O)[C@@H]2CSSC[C@@H]3NC(=O)[C@H](C(C)C)NC(=O)[C@H](CCC(=O)O)NC(=O)CNC(=O)[C@H](CCC(=O)O)NC(=O)[C@H](CCCCN)NC(=O)[C@H](C)NC(=O)[C@@H](NC(=O)[C@@H](N)CC(N)=O)CSSC[C@H](NC(=O)[C@H](CSSC[C@@H](C(=O)N[C@@H](CCC(=O)O)C(=O)N[C@@H](CCCCN)C(=O)N[C@@H](Cc4ccc(O)cc4)C(=O)N[C@@H](CCCNC(=N)N)C(=O)O)NC(=O)[C@H](Cc4ccc(O)cc4)NC(=O)[C@@H]4CCCN4C1=O)NC(=O)[C@H](CCCCN)NC(=O)[C@H](CO)NC(=O)CNC(=O)[C@H](Cc1c[nH]c4ccccc14)NC(=O)CNC3=O)C(=O)N[C@@H](Cc1c[nH]cn1)C(=O)NCC(=O)N[C@@H](CC(C)C)C(=O)N[C@@H](CC(=O)O)C(=O)N2", "note": "[K2] (H-NCAKEGEVCGWGSKCCHGLDCPLAFIPYCEKYR-OH; disulfide 2-16, 9-21, 15-29 (inferred); N-terminus and C-terminus assumed)", "values": [{"measurement": "F/F0^max (relative fluorescence intensity at 320 nm when partitioning is saturated)", "setting": "Trp fluorescence, 10 mM HEPES, 1 mM EDTA, pH 7.0, fit of partition function, ± SEM, n = 3 or 4, SEM", "result": "3.71 ± 0.40"}, {"measurement": "measured free energy of membrane partitioning (ΔG° = −RT lnKx)", "setting": "from measured Kx", "result": -24.3, "unit": "kJ/mol"}]}]}
